From PMC7762786, “The discovery of novel antitrypanosomal 4-phenyl-6-(pyridin-3-yl)pyrimidines” (European Journal of Medicinal Chemistry, 2021)

Assays:
[1] = biological target: T1, HDAC6 (Homo sapiens, UniProt Q9UBN7); experiment: Histone deacetylase assay (HDAC-Glo I/II); format: biochemical; conditions: 10 μM, result in words
T1 construct: purchased BPS Bioscience (San Diego, USA)
T1 sequence (Q9UBN7 1-1215): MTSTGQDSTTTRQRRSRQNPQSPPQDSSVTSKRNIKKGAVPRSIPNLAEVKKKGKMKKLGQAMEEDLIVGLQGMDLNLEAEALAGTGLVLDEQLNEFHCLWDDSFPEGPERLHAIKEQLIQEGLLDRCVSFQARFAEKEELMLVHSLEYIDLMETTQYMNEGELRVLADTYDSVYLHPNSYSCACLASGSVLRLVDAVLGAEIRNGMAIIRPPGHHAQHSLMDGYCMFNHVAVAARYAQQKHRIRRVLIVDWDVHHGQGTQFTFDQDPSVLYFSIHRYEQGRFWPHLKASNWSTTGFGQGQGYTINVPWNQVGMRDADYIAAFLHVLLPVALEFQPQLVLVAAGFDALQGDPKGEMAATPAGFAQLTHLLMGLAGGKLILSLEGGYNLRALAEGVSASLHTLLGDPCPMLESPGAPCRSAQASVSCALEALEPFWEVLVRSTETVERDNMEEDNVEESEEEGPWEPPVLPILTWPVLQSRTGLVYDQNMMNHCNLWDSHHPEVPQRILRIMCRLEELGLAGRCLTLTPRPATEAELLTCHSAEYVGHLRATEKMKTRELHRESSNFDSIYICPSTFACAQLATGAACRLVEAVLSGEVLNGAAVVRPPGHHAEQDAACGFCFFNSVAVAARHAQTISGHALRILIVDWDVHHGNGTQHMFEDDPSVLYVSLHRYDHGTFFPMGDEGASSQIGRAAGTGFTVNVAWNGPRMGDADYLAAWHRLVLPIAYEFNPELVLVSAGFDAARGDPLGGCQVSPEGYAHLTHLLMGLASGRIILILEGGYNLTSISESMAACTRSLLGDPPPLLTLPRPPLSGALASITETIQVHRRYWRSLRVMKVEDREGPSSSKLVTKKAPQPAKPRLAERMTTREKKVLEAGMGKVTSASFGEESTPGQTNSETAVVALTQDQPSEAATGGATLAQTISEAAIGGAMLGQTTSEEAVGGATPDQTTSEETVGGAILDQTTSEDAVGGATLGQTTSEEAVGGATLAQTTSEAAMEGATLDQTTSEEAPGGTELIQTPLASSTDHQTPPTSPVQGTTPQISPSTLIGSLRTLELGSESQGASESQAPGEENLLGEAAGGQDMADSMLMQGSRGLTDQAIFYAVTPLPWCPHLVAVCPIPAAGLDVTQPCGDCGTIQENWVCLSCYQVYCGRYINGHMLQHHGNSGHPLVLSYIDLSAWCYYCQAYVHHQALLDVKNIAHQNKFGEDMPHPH
Procedure: (§1) Cytotoxicity was also determined against 786-O and A549 cells.
(§2) Experiments for determining pre-clinical in vitro ADME-Tox activities were performed as described by Moraes et al. and also described in the following sections 4.3.2.1 to 4.3.2.4.
(§3) Inhibition of histone deacetylase (HDAC) enzymes was determined using the bioluminogenic HDAC-Glo™ I/II assay (Promega Corp.) in 384-well assay format. Human recombinant HDAC enzymes were purchased from BPS Bioscience (San Diego, USA) and the standard inhibitor trichostatin A (Sigma-Aldrich) was dissolved to a yield stock solution in 100% v/v DMSO (stored at −20 °C). Plate handling was performed using a Cell Explorer HTS platform equipped with an Echo 550® Liquid Handler and Multidrop liquid handling system with luminescence measurements taken using an EnVision® multilabel 2103 reader. Compounds were added to plates (100 nL/well; 1% v/v DMSO) and the HDAC-Glo™ I/II assay reagent was prepared by (i) rehydration of lyophilised HDAC-Glo™ I/II substrate (with an acetylated peptide concentration of 100 μM) in 10 mL HDAC-Glo™ I/II assay buffer and (ii) addition of 10 μL of developer reagent (containing trypsin). The microtiter plates were mixed briefly by orbital shaking (500–700 rpm) and luminescence was measured at steady-state signal:background which was achieved after 20 min. The raw data were normalised relative to the positive and negative controls yielding the % inhibition for each compound.

[2] = biological target: T2, HDAC3 (Homo sapiens, UniProt O15379); experiment: Histone deacetylase assay (HDAC-Glo I/II); format: biochemical; conditions: 10 μM, result in words
T2 construct: purchased BPS Bioscience (San Diego, USA)
Procedure: as §1, §2, §3

[3] = biological target: T3, HDAC1 (Homo sapiens, UniProt Q13547); experiment: Histone deacetylase assay (HDAC-Glo I/II); format: biochemical; conditions: 10 μM, result in words
T3 construct: purchased BPS Bioscience (San Diego, USA)
Procedure: as §1, §2, §3

[4] = biological target: T4, hERG (Homo sapiens, UniProt Q12809); experiment: hERG cardiotoxicity assay (Predictor hERG Fluorescence Polarisation); format: binding; conditions: 10 μM, result in words
T4 construct: purchased Invitrogen
Procedure: as §1, §2
The Invitrogen Predictor™ hERG Fluorescence Polarisation Assay was used in 384-well assay format. […] The plates were incubated for 2 h at 25 °C in a humidity-controlled incubator and the fluorescence polarisation was measured using an EnVision® multilabel 2103 reader. […] The raw data were normalised relative to the positive and negative controls yielding the % cardiotoxicity for each compound.

T4 sequence (Q12809 whole entry): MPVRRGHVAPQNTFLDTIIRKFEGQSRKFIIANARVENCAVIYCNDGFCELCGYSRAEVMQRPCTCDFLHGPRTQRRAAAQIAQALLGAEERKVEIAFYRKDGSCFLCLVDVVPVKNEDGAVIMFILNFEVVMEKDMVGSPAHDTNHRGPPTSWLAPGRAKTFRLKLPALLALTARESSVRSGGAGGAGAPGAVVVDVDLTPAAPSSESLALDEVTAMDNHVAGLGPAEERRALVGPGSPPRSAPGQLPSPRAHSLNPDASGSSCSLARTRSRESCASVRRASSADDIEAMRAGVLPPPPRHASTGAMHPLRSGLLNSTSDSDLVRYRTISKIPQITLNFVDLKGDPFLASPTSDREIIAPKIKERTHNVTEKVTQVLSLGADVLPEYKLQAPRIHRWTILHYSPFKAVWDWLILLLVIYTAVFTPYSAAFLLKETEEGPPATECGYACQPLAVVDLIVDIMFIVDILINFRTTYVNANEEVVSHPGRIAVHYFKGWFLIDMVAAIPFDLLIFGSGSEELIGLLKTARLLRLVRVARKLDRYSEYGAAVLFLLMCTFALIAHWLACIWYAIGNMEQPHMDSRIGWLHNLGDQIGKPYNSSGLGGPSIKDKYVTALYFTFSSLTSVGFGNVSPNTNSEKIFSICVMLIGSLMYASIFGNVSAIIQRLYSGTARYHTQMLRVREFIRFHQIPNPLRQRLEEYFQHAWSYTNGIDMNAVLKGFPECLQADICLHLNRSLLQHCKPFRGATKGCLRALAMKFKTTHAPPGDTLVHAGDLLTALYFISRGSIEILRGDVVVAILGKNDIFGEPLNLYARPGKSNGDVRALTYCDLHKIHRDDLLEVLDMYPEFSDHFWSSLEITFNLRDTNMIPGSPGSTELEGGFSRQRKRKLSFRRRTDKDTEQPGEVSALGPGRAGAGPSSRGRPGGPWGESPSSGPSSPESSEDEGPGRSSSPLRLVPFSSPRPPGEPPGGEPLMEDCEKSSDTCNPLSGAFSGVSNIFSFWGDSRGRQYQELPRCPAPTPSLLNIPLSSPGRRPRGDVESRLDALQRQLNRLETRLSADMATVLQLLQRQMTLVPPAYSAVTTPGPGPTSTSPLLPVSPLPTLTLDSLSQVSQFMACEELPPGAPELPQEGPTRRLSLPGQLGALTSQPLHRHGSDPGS
T3 sequence (Q13547 whole entry): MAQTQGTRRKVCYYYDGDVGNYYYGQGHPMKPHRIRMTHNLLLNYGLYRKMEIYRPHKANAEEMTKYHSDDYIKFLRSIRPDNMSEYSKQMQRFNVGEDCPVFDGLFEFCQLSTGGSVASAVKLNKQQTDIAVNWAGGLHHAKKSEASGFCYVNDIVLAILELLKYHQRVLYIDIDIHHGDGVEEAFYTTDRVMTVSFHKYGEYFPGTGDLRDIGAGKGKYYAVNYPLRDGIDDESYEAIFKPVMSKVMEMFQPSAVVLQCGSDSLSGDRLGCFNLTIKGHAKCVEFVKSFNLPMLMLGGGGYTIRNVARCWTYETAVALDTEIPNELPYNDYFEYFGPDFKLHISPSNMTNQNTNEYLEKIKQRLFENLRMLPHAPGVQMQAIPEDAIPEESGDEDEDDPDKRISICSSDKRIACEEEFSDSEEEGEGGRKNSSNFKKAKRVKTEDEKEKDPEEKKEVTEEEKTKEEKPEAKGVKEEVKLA
T2 sequence (O15379 whole entry): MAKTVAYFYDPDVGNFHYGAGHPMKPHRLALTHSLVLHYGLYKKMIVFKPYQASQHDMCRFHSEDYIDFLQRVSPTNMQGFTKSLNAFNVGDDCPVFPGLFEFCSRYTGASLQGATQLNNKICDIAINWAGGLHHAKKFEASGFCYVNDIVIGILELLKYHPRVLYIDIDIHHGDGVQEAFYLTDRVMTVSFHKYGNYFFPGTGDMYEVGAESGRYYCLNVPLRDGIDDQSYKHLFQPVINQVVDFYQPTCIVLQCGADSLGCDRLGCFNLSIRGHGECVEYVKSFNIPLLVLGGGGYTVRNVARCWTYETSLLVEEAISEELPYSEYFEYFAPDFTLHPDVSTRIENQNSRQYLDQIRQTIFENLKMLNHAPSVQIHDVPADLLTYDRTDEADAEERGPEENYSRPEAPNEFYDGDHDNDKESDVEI
T2 sequence (Q9Y618 395-489 partner limits assumed): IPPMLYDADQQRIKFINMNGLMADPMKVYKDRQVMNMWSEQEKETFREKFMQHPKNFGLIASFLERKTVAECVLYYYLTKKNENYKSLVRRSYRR

With COc1ccccc1-c1cc(-c2cccnc2)nc(N)n1 [Compound 13, 4-(2-Methoxyphenyl)-6-(pyridin-3-yl)pyrimidin-2-amine] the melting point was 108 to 110 °C, the HDAC6 inhibition [1] was “No inhibition” and the HDAC3 inhibition [2] was “No inhibition”. For the same molecule, the HDAC1 inhibition [3] was “No inhibition” and the hERG cardiotoxicity [4] was “no notable”.
